Columns and labels:
HEL [1] = assay: Cytotoxic concentration required to inhibit HEL cell growth by 50 %; type: functional; conditions: Homo sapiens
Human alphaherpesvirus 3 [2] = assay: Effective concentration required for reduction of plaque formation of thymidine kinase deficient Varicella-Zoster Virus (071 strain); type: functional, organism-based
HEL [3] = assay: Minimum cytotoxic concentration required to alter microscopically detectable HEL cell morphology; type: functional; conditions: Homo sapiens
Human alphaherpesvirus 3 [4] = assay: Effective concentration required for reduction of plaque formation of Varicella-Zoster Virus (OKA strain); type: functional, organism-based
Human alphaherpesvirus 3 [5] = assay: Effective concentration required for reduction of plaque formation of Varicella-Zoster Virus, (YS strain); type: functional, organism-based
Human alphaherpesvirus 3 [6] = assay: Effective concentration required for reduction of plaque formation of thymidine kinase deficient Varicella-Zoster Virus (YSR strain); type: functional, organism-based

Compound	EC50 (Human alphaherpesvirus 3 [2]) [µM]	EC50 (Human alphaherpesvirus 3 [4]) [µM]	EC50 (Human alphaherpesvirus 3 [5]) [µM]	EC50 (Human alphaherpesvirus 3 [6]) [µM]	CC50 (HEL [1]) [µM]	MCC (HEL [3]) [µM]
Nc1nc2c(ncn2COCCO)c(=O)[nH]1 [ACYCLOVIR]	> 4				> 200	
CCCCCCc1cc2cn([C@H]3C[C@H](O)[C@@H](CO)O3)c(=O)nc2o1					> 200	> 50
CCCCCCCc1cc2cn([C@H]3C[C@H](O)[C@@H](CO)O3)c(=O)nc2o1					> 50	
CCCCCCCCc1cc2cn([C@H]3C[C@H](O)[C@@H](CO)O3)c(=O)nc2o1					> 50	
CCCCCc1cc2cn([C@H]3C[C@H](O)[C@@H](CO)O3)c(=O)nc2o1					> 50	
CCCCCCCCCCc1cc2cn([C@H]3C[C@H](O)[C@@H](CO)O3)c(=O)nc2o1					> 50	

The next lines start with results.

EC50 (Human alphaherpesvirus 3 [2]) [µM]	EC50 (Human alphaherpesvirus 3 [4]) [µM]	EC50 (Human alphaherpesvirus 3 [5]) [µM]	EC50 (Human alphaherpesvirus 3 [6]) [µM]	Compound	CC50 (HEL [1]) [µM]	MCC (HEL [3]) [µM]
> 200	79	37	> 200	C#CCCCCCc1cc2cn([C@H]3C[C@H](O)[C@@H](CO)O3)c(=O)nc2o1	> 200	> 200
> 200	14	13	> 200	C=CCCCCc1cc2cn([C@H]3C[C@H](O)[C@@H](CO)O3)c(=O)nc2o1	> 200	> 200
> 200	> 200	> 200	> 200	C=CCCCc1cc2cn([C@H]3C[C@H](O)[C@@H](CO)O3)c(=O)nc2o1	> 200	> 200
> 200	0.09	0.1	> 200	C=CCCCCCCCCc1cc2cn([C@H]3C[C@H](O)[C@@H](CO)O3)c(=O)nc2o1	> 200	> 50
> 200	25	33	> 200	C#CCCCCc1cc2cn([C@H]3C[C@H](O)[C@@H](CO)O3)c(=O)nc2o1	> 200	> 200
> 200	0.27	0.06	> 50	C=CCCCCCCc1cc2cn([C@H]3C[C@H](O)[C@@H](CO)O3)c(=O)nc2o1	> 200	> 200
> 200	8	10	> 200	C#CCCCc1cc2cn([C@H]3C[C@H](O)[C@@H](CO)O3)c(=O)nc2o1	> 200	> 200
> 200	5	4	> 200	C#CCCCCCCc1cc2cn([C@H]3C[C@H](O)[C@@H](CO)O3)c(=O)nc2o1	> 200	> 200

— ChEMBL document CHEMBL1134172, “Bicyclic nucleoside inhibitors of Varicella-Zoster Virus (VZV): the effect of terminal unsaturation in the side chain” (Bioorg Med Chem Lett, 2001)
